# Source: US11612604B2, “Methods of treating cancer with PLK4 inhibitors” (LUDWIG INSTITUTE FOR CANCER RESEARCH LTD, priority 2017, dated 2023)
# Target: T1, PLK4 (Homo sapiens, UniProt O00444)
# T1 sequence (O00444 1-970): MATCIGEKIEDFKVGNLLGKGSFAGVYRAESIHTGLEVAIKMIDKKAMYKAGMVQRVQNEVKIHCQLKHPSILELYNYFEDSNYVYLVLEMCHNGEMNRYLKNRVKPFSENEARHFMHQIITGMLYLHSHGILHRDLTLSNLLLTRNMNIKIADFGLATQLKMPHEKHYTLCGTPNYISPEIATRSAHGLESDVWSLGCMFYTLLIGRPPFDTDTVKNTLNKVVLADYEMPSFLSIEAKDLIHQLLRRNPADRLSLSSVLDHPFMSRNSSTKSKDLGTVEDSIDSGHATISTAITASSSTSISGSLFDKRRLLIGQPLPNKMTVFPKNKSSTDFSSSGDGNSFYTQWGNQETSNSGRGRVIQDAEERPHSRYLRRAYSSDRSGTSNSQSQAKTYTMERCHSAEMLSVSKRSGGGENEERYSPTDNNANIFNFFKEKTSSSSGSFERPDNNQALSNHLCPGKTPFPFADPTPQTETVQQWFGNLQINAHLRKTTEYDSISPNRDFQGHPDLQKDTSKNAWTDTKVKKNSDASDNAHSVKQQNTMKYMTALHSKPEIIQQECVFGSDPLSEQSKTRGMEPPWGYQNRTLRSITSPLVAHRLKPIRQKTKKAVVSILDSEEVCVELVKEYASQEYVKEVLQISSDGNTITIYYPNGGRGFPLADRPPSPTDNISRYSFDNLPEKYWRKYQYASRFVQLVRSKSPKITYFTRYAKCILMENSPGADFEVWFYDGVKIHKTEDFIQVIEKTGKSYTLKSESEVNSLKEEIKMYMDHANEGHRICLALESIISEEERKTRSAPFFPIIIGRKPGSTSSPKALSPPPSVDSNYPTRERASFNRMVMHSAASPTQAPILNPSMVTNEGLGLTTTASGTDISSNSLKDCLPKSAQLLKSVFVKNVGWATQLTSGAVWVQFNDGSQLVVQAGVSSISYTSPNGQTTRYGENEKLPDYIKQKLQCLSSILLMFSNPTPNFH
# Test: Activity (IC50) of the Table 1 compounds as PLK4 inhibitors
# Type: biochemical
# Conditions: Table 1, IC50 class
row,IC50 [nM],SMILES
1,< 100,COc1c(Nc2cc(C)[nH]n2)nc(Sc2ccc(NC(=O)C3CC3)cc2)nc1N1CCOCC1
2,< 100,COc1c(Nc2cc(C)[nH]n2)nc(Sc2ccc(S(=O)(=O)Cc3cccc([N+](=O)[O-])c3F)cc2F)nc1N1CCC(NC(C)=O)CC1
3,< 100,CCS(=O)(=O)c1ccc(Sc2nc(Nc3cc(C)[nH]n3)c(OC)c(N3CCNCC3)n2)cc1
4,< 100,CCS(=O)(=O)c1ccc(Sc2nc(Nc3cc(C)[nH]n3)c(OC)c(N3CCN(C)CC3)n2)c(Cl)c1
5,< 100,COc1c(Nc2cc(C)[nH]n2)nc(Sc2ccc(S(=O)(=O)Cc3cccc(OCc4ccccc4)c3)cc2)nc1N1CCN(CCN(C)C)CC1
6,< 100,COc1c(Nc2cc(C)[nH]n2)nc(Sc2ccc(S(=O)(=O)C(C)(C)c3cccnc3)cc2)nc1N1CCN(CCN(C)C)CC1
7,< 100,COc1c(Nc2cc(C)[nH]n2)nc(Sc2ccc(S(=O)(=O)Cc3cccc([N+](=O)[O-])c3F)cc2F)nc1N1CCC(CC(N)=O)CC1
8,< 100,COc1c(Nc2cc(C)[nH]n2)nc(Sc2ccc(NC(C)=O)cc2)nc1N1CCN(CCN(C)Cc2ccccc2)CC1
9,< 100,COc1c(Nc2cc(C)[nH]n2)nc(Sc2ccc(S(=O)(=O)Cc3ccccc3N(C)C)cc2)nc1N1CCN(CCN(C)C)CC1
10,< 100,COc1c(Nc2cc(C)[nH]n2)nc(Sc2ccc(S(=O)(=O)C(C)(C)c3cccc([N+](=O)[O-])c3F)cc2F)nc1N1CCC(CC(=O)O)CC1
11,< 100,COc1ccc([N+](=O)[O-])cc1CS(=O)(=O)c1ccc(Sc2nc(Nc3cc(C)[nH]n3)c(OC)c(N3CCN(CCN(C)C)CC3)n2)cc1
12,< 100,COc1c(Nc2cc(C)[nH]n2)nc(Sc2ccc([N+](=O)[O-])cc2)nc1N1CCN(CCN(C)C)CC1
13,< 100,COc1c(Nc2cc(C)[nH]n2)nc(Sc2ccc(S(=O)(=O)C(C)(C)c3cccc([N+](=O)[O-])c3F)cc2F)nc1N1CCC(N)C1 (stereo not shown)
14,< 100,COc1c(Nc2cc(C)[nH]n2)nc(Sc2ccc(NC(C)=O)cc2)nc1N1CCC(N(C)C)CC1
15,< 100,COc1c(Nc2cc(C)[nH]n2)nc(Sc2ccc(NC(=O)C3CC3)cc2)nc1N1CCNCC1
16,< 100,COc1c(Nc2cc(C)[nH]n2)nc(Sc2ccc(S(=O)(=O)Cc3cccc(Br)c3F)cc2F)nc1N1CCCCC1
17,< 100,COc1c(Nc2cc(C)[nH]n2)nc(Sc2ccc(NC(C)=O)cc2)nc1N1CCN(C(=O)CN(C)C)CC1
18,< 100,COc1c(Nc2cc(C)[nH]n2)nc(Sc2ccc(S(=O)(=O)Cc3ccccc3C(N)=O)cc2)nc1N1CCN(CCN(C)C)CC1
19,< 100,COCC(=O)N1CCN(c2nc(Sc3ccc(NC(C)=O)cc3)nc(Nc3cc(C)[nH]n3)c2OC)CC1
20,< 100,COc1c(Nc2cc(C)[nH]n2)nc(Sc2ccc(S(=O)(=O)Cc3ccccc3)cc2)nc1N1CCC(CCN(C)C)CC1
21,< 100,COc1c(Nc2cc(C)[nH]n2)nc(Sc2ccc(S(=O)(=O)C(C)(C)c3ccccn3)cc2)nc1N1CCN(CCN(C)C)CC1
22,< 100,COc1ccc(CN(C)CCC2CCN(c3nc(Sc4ccc(S(=O)(=O)C(C)(C)c5cc(Cl)cc([N+](=O)[O-])c5F)cc4F)nc(Nc4cc(C)[nH]n4)c3OC)CC2)cc1
23,< 100,COc1c(Nc2cc(C)[nH]n2)nc(Sc2ccc(S(=O)(=O)C(C)(C)c3ncc[nH]3)cc2)nc1N1CCN(CCN(C)C)CC1
24,< 100,Cc1cc(Nc2nc(Sc3ccc(S(=O)(=O)Cc4ccccc4)cc3)nc(N3CCN(CCN(C)C)CC3)c2OC(C)C)n[nH]1
25,< 100,CC(=O)Nc1ccc(Sc2nc(Nc3cc(C)[nH]n3)c(C)c(N3CCC(C(C)=O)CC3)n2)cc1
26,< 100,COc1c(Nc2cc(C)[nH]n2)nc(Sc2ccc(S(=O)(=O)Cc3cccc(Br)c3F)cc2F)nc1N1CCOCC1
27,< 100,COc1c(Nc2cc(C)[nH]n2)nc(Sc2ccc(S(=O)(=O)Cc3ccccc3)cc2)nc1N1CCN(CCN2CCC(O)CC2)CC1

# Second part, the molecule before the results:
row,SMILES,IC50 [nM]
1,CCc1cc(Nc2nc(SC)nc(N3CCN(CCN(C)C)CC3)c2C)n[nH]1,< 100
2,COc1c(Nc2cc(C)[nH]n2)nc(Sc2ccc(S(=O)(=O)C(C)(C)c3c(F)c(F)cc(F)c3F)cc2F)nc1N1CCC(N(C)C)CC1,< 100
3,CC(=O)Nc1ccc(Cc2nc(N3CCC(O)CC3)nc(Nc3cc(C)[nH]n3)c2Cl)cc1,< 100
4,COc1c(Nc2cc(C)[nH]n2)nc(Sc2ccc(S(=O)(=O)C(C)(C)c3cccc([N+](=O)[O-])c3F)cc2F)nc1N(C)C,< 100
5,CC(=O)Nc1ccc(Sc2nc(Nc3cc(C)[nH]n3)c(C)c(N3CCC(F)(F)CC3)n2)cc1,< 100
6,Cc1cc(Nc2nc(Sc3ccc(NC(=O)C4CCCC4)cc3)nc(N3CCN(C4CCN(C)CC4)CC3)c2C)n[nH]1,< 100
7,COCCNc1nc(Sc2ccc(NC(=O)C3CC3)cc2)nc(Nc2cc(C)[nH]n2)c1C,< 100
8,COc1c(Nc2cc(C)[nH]n2)nc(Sc2ccc(S(=O)(=O)C(C)(C)c3cccc([N+](=O)[O-])c3F)cc2F)nc1N1CC[C@@H](N(C)C)C1,< 100
9,Cc1ccc(Sc2nc(Nc3cc(C)[nH]n3)c(C)c(N3CCOCC3)n2)cc1,< 100
10,Cc1cc(Nc2nc(Sc3ccc(NC(=O)C4CC4)cc3)nc(N3CCN(C)CC3)c2C)n[nH]1,< 100
11,CC(=O)Nc1ccc(Sc2nc(Nc3cc(C)[nH]n3)c(C)c(NC3CCNCC3)n2)cc1,< 100
12,CC(=O)Nc1ccc(Sc2nc(Nc3cc(C)[nH]n3)c(Cl)c(N3CCC(O)CC3)n2)cc1,< 100
13,COc1c(Nc2cc(C)[nH]n2)nc(Sc2ccc(S(=O)(=O)C(C)(C)c3cccc([N+](=O)[O-])c3F)cc2F)nc1N1CCN(C(=O)CN(C)C)CC1,< 100
14,COc1c(Nc2cc(C)[nH]n2)nc(Sc2ccc(NC(=O)C3CCCC3)cc2)nc1N1CCN(C(C)=O)CC1,< 100
15,COc1c(Nc2cc(C)[nH]n2)nc(Sc2ccc(NC(C)=O)cc2)nc1N1CCN(CCN2CCN(C)CC2)CC1,< 100
16,COc1c(Nc2cc(C)[nH]n2)nc(Sc2ccc(S(=O)(=O)Cc3cccc(C(F)(F)F)c3F)cc2F)nc1N1CCOCC1,< 100
17,Cc1ccc(Sc2nc(Nc3cc(C)[nH]n3)c(C)c(N(C)C(C)C)n2)cc1,< 100
18,Cc1cc(Nc2nc(Sc3ccc(NC(=O)C4CC4)cc3)nc(N3CCN(C)C(C)C3)c2C)n[nH]1 (stereo not shown),< 100
19,COCCN(C)c1nc(Sc2ccc(NC(C)=O)cc2)nc(Nc2cc(C)[nH]n2)c1C,< 100
20,COc1c(Nc2cc(C)[nH]n2)nc(Sc2ccc(S(=O)(=O)C(C)(C)c3c(F)c(F)cc(F)c3F)cc2F)nc1N1CCC(N)C1 (stereo not shown),< 100
21,COCC(=O)N1CCN(c2nc(Sc3ccc(C)cc3)nc(Nc3cc(C)[nH]n3)c2C)CC1,< 100
22,COCC(=O)N1CCN(c2nc(Sc3ccc(NC(C)=O)cc3)nc(Nc3cc(C)[nH]n3)c2C)CC1,< 100
23,COc1c(Nc2cc(C)[nH]n2)nc(Sc2ccc(S(=O)(=O)C(C)(C)c3cccc([N+](=O)[O-])c3F)cc2F)nc1N1CC[C@H](N(C)C)C1,< 100
24,COCCN1CCN(c2nc(Sc3ccc(NC(C)=O)cc3)nc(Nc3cc(C)[nH]n3)c2C)CC1,< 100
25,CCN1CCN(c2nc(Sc3ccc(NC(C)=O)cc3)nc(Nc3cc(C)[nH]n3)c2C)CC1,< 100
26,COc1c(Nc2cc(C)[nH]n2)nc(Sc2ccc(NC(C)=O)cc2)nc1N1C2CCC1CC(O)C2 (stereo not shown),< 100
27,COc1c(Nc2cc(C)[nH]n2)nc(Sc2ccc(S(=O)(=O)C(C)(C)c3c(F)c(F)cc([N+](=O)[O-])c3F)cc2F)nc1N1CCN(CCN(C)C)CC1,< 100
28,COc1c(Nc2cc(C)[nH]n2)nc(Sc2ccc(NC(=O)c3cccc([N+](=O)[O-])c3)cc2F)nc1N1CCOCC1,100 to 1000
